This assay concerns the target GluA1o-γ8 (GRIA1o-CACNG8 fusion construct) (Homo sapiens (Human), UniProt P42261+Q8WXS5). The assay is described as follows: Calcium flux assay (FLIPR), inhibition of TARP γ8 dependent AMPA receptor activity. It counts as cell-based. The settings on record: GluA1o-γ8 (GRIA1o-CACNG8 fusion) in HEK293 cells, calcium flux after 15 μM glutamate. The method in brief:
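Glutamate (15 μM) was added to a stable HEK293 line carrying the GluA1o–γ8 fusion, which had been preincubated with compound and calcium dye in HEPES buffer, pH 7.4. Normalized FLIPR fluorescence (no compound vs 10 μM CP465022) was fitted with four parameters; pIC50 is the midpoint's negative log.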
(In general: A change in cytosolic calcium serves as a functional read-out for many receptors and channels.)

Data on 40 compounds can be found in patent US11312712B2, “Azabenzimidazoles and their use as AMPA receptor modulators” (Janssen Pharmaceutica NV, priority 2015, dated 2022).

The IC50 is the concentration at which inhibition is half-maximal.

Sequence of GluA1o-γ8 (GRIA1o-CACNG8 fusion construct) (P42261 other isoform, or with tags, fused parts or gaps): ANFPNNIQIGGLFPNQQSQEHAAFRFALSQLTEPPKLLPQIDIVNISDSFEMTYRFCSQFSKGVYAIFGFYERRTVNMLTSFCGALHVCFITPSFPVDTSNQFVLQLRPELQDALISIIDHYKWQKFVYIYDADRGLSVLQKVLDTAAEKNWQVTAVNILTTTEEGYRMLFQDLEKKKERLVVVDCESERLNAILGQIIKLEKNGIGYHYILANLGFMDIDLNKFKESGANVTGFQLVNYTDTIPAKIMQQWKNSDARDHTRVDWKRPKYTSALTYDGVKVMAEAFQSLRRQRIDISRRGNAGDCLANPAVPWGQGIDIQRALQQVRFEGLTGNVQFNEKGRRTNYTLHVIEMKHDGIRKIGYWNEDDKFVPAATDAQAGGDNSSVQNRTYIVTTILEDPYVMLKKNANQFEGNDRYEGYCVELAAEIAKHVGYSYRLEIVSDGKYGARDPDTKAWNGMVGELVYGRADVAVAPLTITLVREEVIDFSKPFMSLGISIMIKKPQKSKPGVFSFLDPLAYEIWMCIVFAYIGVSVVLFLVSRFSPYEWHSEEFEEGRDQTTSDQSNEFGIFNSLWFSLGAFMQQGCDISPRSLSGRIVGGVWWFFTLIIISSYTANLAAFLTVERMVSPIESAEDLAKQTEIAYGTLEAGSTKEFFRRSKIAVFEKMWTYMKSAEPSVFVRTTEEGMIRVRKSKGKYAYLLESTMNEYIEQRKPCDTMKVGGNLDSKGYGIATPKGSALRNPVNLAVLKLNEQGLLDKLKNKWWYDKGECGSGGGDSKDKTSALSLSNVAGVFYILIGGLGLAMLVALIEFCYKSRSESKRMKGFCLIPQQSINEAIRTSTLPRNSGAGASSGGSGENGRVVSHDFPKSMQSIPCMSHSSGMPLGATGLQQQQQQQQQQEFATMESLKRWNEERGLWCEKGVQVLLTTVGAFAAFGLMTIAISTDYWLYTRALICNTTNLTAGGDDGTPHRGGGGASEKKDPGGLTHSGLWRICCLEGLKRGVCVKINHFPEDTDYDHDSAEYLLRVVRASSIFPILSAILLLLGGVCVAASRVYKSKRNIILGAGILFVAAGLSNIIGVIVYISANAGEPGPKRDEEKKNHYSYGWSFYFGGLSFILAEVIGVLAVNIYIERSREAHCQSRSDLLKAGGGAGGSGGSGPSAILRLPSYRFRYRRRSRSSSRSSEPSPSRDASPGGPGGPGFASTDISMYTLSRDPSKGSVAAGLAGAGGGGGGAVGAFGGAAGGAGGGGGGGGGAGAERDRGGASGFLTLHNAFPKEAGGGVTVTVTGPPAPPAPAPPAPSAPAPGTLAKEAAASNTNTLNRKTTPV

`Cc1cc2ccc(C(F)(F)F)nc2n1-c1ccc2c(c1)CC(=O)N2` [Example 352, 5-[2-Methyl-6-(trifluoromethyl)pyrrolo[2,3-b]pyridin-1-yl]indolin-2-one]: the IC50 was 0.501 nM. Turning to `Cc1cc(-n2c(C)cc3cccnc32)cc2c1NC(=O)C2` [Example 353, 7-Methyl-5-(2-methyl-1H-pyrrolo[2,3-b]pyridin-1-yl)indolin-2-one], the IC50 is 12.6 nM. The value for `Cc1cc2ccc(C(F)(F)F)nc2n1-c1ccc2[nH]ncc2c1` [Example 354, 5-(2-Methyl-6-(trifluoromethyl)-1H-pyrrolo[2,3-b]pyridin-1-yl)-1H-indazole] was 0.501 nM; that for `Cc1cc2ccc(C(F)(F)F)nc2n1-c1ccc2[nH]c(=O)sc2c1` [Example 355, 6-(2-Methyl-6-(trifluoromethyl)-1H-pyrrolo[2,3-b]pyridin-1-yl)benzo[d]thiazol-2(3H)-one] was 0.02 nM; that for `CC(C)c1cc2cccnc2n1-c1cc(Cl)c2[nH]ncc2c1` [Example 356, 1-(7-Chloro-1H-indazol-5-yl)-2-isopropyl-pyrrolo[2,3-b]pyridine] was 0.02 nM.

As to `CC(C)c1cc2cccnc2n1-c1cc(Cl)c2c(c1)CC(=O)N2` [Example 357, 7-Chloro-5-(2-isopropylpyrrolo[2,3-b]pyridin-1-yl)indolin-2-one], the IC50 was 0.0316 nM. As to `Cc1cc(-n2c(C(C)C)cc3cccnc32)cc2c1NC(=O)C2` [Example 358, 5-(2-Isopropylpyrrolo[2,3-b]pyridin-1-yl)-7-methyl-indolin-2-one], the IC50 was 0.2 nM. `Cc1cc(-n2c(C3CC3)cc3cccnc32)cc2c1NC(=O)C2` [Example 359, 5-(2-Cyclopropylpyrrolo[2,3-b]pyridin-1-yl)-7-methyl-indolin-2-one]: the IC50 was 10 nM. Consider `Cc1ccc2cc(C(C)C)n(-c3cc(C)c4c(c3)CC(=O)N4)c2n1` [Example 360, 5-(2-Isopropyl-6-methyl-pyrrolo[2,3-b]pyridin-1-yl)-7-methyl-indolin-2-one], for which the IC50 is 0.0631 nM. Turning to `CC(C)c1cc2cccnc2n1-c1cc(F)c2c(c1)CC(=O)N2` [Example 361, 7-Fluoro-5-(2-isopropylpyrrolo[2,3-b]pyridin-1-yl)indolin-2-one], the IC50 is 7.94 nM. The figure for `Cc1ccc2cc(C(C)C)n(-c3cc(F)c4c(c3)CC(=O)N4)c2n1` [Example 362, 7-Fluoro-5-(2-isopropyl-6-methyl-pyrrolo[2,3-b]pyridin-1-yl)indolin-2-one] is 0.0398 nM; for `Cc1cc2cccnc2n1-c1cc(F)c2c(c1)CC(=O)N2` [Example 363, 7-Fluoro-5-(2-methylpyrrolo[2,3-b]pyridin-1-yl)indolin-2-one] it is 200 nM.

As for `Cc1cc2ccc(C(F)(F)F)nc2n1-c1cc(F)c2c(c1)CC(=O)N2` [Example 364, 7-Fluoro-5-[2-methyl-6-(trifluoromethyl)pyrrolo[2,3-b]pyridin-1-yl]indolin-2-one], the IC50 is 3160 nM.

For `COCc1cc2ccc(C(F)(F)F)nc2n1-c1cc(F)c2c(c1)CC(=O)N2` [Example 366, 7-Fluoro-5-[2-(methoxymethyl)-6-(trifluoromethyl)pyrrolo[2,3-b]pyridin-1-yl]indolin-2-one], the IC50 was 0.631 nM. For the compound `Cc1cc(-n2c(C(C)C)cc3ccc(C(F)(F)F)nc32)cc2c1NC(=O)C2` [Example 367, 5-[2-Isopropyl-6-(trifluoromethyl)pyrrolo[2,3-b]pyridin-1-yl]-7-methyl-indolin-2-one], the IC50 was 0.0251 nM. Regarding `CC(C)c1cc2ccc(C(F)(F)F)nc2n1-c1cc(F)c2c(c1)CC(=O)N2` [Example 369, 7-Fluoro-5-[2-isopropyl-6-(trifluoromethyl)pyrrolo[2,3-b]pyridin-1-yl]indolin-2-one], the IC50 was 0.00794 nM. In the case of `Cc1cc(-n2c(C(C)C)cc3ccc(C(F)(F)F)nc32)cc2cn[nH]c12` [Example 370, 2-Isopropyl-1-(7-methyl-1H-indazol-5-yl)-6-(trifluoromethyl)pyrrolo[2,3-b]pyridine], the IC50 is 0.00794 nM. In the case of `Cc1cc(-n2c(CCCF)cc3ccc(C(F)(F)F)nc32)cc2cn[nH]c12` [Example 371, 2-(3-Fluoropropyl)-1-(7-methyl-1H-indazol-5-yl)-6-(trifluoromethyl)pyrrolo[2,3-b]pyridine], the IC50 was 0.0398 nM.

`FCCCc1cc2ccc(C(F)(F)F)nc2n1-c1cc(Cl)c2[nH]ncc2c1` [Example 372, 1-(7-Chloro-1H-indazol-5-yl)-2-(3-fluoropropyl)-6-(trifluoromethyl)pyrrolo[2,3-b]pyridine]: the concentration for half-maximal inhibition (IC50) is 0.0316 nM. `Cc1cc(-n2c(C)cc3ccc(C(F)(F)F)nc32)cc2cn[nH]c12` [Example 373, 2-Methyl-1-(7-methyl-1H-indazol-5-yl)-6-(trifluoromethyl)pyrrolo[2,3-b]pyridine]: the IC50 is 0.0501 nM. As for `Cc1cc2ccc(C(F)(F)F)nc2n1-c1cc(Cl)c2[nH]ncc2c1` [Example 374, 1-(7-Chloro-1H-indazol-5-yl)-2-methyl-6-(trifluoromethyl)pyrrolo[2,3-b]pyridine], the IC50 was 0.0126 nM. The value for `Cc1cc(-n2c(C)cc3cccnc32)cc2cn[nH]c12` [Example 375, 2-Methyl-1-(7-methyl-1H-indazol-5-yl)pyrrolo[2,3-b]pyridine] was 10 nM. Regarding `CC(C)c1cc2ccc(C(F)(F)F)nc2n1-c1cnc2[nH]ncc2c1` [Example 376, 5-[2-Isopropyl-6-(trifluoromethyl)pyrrolo[2,3-b]pyridin-1-yl]-1H-pyrazolo[3,4-b]pyridine], the IC50 was 0.0501 nM. For the compound `Cc1cc(-n2ccc3ccc(C(F)(F)F)nc32)cc2cn[nH]c12` [Example 377, 1-(7-Methyl-1H-indazol-5-yl)-6-(trifluoromethyl)pyrrolo[2,3-b]pyridine], the IC50 was 2 nM. Turning to `Cc1ccc2ccn(-c3cc(C)c4c(c3)CC(=O)N4)c2n1` [Example 378, 7-Methyl-5-(6-methylpyrrolo[2,3-b]pyridin-1-yl)indolin-2-one], the IC50 is 100 nM. Regarding `Cc1ccc2ccn(-c3cc(F)c4c(c3)CC(=O)N4)c2n1` [Example 379, 7-Fluoro-5-(6-methylpyrrolo[2,3-b]pyridin-1-yl)indolin-2-one], the IC50 is 100 nM. Take `Cc1ccc2cc(C3CC3)n(-c3ccc4c(c3)CC(=O)N4)c2n1` [Example 380, 5-(2-Cyclopropyl-6-methyl-pyrrolo[2,3-b]pyridin-1-yl)indolin-2-one]: the IC50 was 1 nM. `Cc1ccc2cc(-c3ccc(F)cc3)n(-c3ccc4[nH]ccc4c3)c2n1` [Example 381, 2-(4-Fluorophenyl)-1-(1H-indol-5-yl)-6-methyl-pyrrolo[2,3-b]pyridine]: the IC50 is 5.01 nM. Consider `Cc1ccc2cc(-c3ccc(F)cc3)n(-c3ccc4c(c3)CC(=O)N4)c2n1` [Example 382, 5-[2-(4-Fluorophenyl)-6-methyl-pyrrolo[2,3-b]pyridin-1-yl]indolin-2-one], for which the IC50 was 0.398 nM. Turning to `O=C1Cc2cc(-n3c(-c4ccc(F)cc4)cc4ccc(Cl)nc43)ccc2N1` [Example 383, 5-[6-Chloro-2-(4-fluorophenyl)pyrrolo[2,3-b]pyridin-1-yl]indolin-2-one], the IC50 is 0.1 nM. Take `COc1ccc2cc(-c3ccc(F)cc3)n(-c3ccc4c(c3)CC(=O)N4)c2n1` [Example 384, 5-[2-(4-Fluorophenyl)-6-methoxy-pyrrolo[2,3-b]pyridin-1-yl]indolin-2-one]: the IC50 was 5.01 nM.

On to `Fc1ccc(-c2cc3ccc(Cl)nc3n2-c2ccc3[nH]ccc3c2)cc1` [Example 385, 6-Chloro-2-(4-fluorophenyl)-1-(1H-indol-5-yl)pyrrolo[2,3-b]pyridine], for which the IC50 was 15.8 nM.

As to `CC(C)(C)Oc1ccc2cc(-c3ccc(F)cc3)n(-c3ccc4[nH]ccc4c3)c2n1` [Example 386, 6-tert-Butoxy-2-(4-fluorophenyl)-1-(1H-indol-5-yl)pyrrolo[2,3-b]pyridine], the IC50 was 1580 nM. The value for `Fc1ccc(-c2cc3ccc(C(F)(F)F)nc3n2-c2ccc3[nH]ccc3c2)cc1` [Example 387, 2-(4-Fluorophenyl)-1-(1H-indol-5-yl)-6-(trifluoromethyl)pyrrolo[2,3-b]pyridine] was 6.31 nM; that for `FC(F)(F)c1ccc2cc(-c3ccccc3)n(-c3ccc4[nH]ccc4c3)c2n1` [Example 388, 1-(1H-Indol-5-yl)-2-phenyl-6-(trifluoromethyl)pyrrolo[2,3-b]pyridine] was 7.94 nM. The figure for `O=C1Cc2cc(-n3c(C4CC4)c(Br)c4ccc(C(F)(F)F)nc43)ccc2N1` [Example 389, 5-[3-Bromo-2-cyclopropyl-6-(trifluoromethyl)pyrrolo[2,3-b]pyridin-1-yl]indolin-2-one] is 0.0631 nM.

In the case of `Cc1ccc2cc(-c3ccccc3)n(-c3cnc4[nH]ccc4c3)c2n1` [Example 390, 6-Methyl-2-phenyl-1-(1H-pyrrolo[2,3-b]pyridin-5-yl)pyrrolo[2,3-b]pyridine], the IC50 was 1.26 nM. Regarding `CC(C)c1cc2ccc(C(F)(F)F)nc2n1-c1cnc2[nH]ccc2c1` [Example 391, 2-Isopropyl-1-(1H-pyrrolo[2,3-b]pyridin-5-yl)-6-(trifluoromethyl)pyrrolo[2,3-b]pyridine], the half-inhibitory concentration (IC50) was 0.631 nM.

As to `Cc1ccc2c(Br)c(-c3ccccc3)n(-c3cnc4c(c3)CC(=O)N4)c2n1` [Example 393, 5-(3-Bromo-6-methyl-2-phenyl-pyrrolo[2,3-b]pyridin-1-yl)-1,3-dihydropyrrolo[2,3-b]pyridin-2-one], the IC50 was 3.16 nM. For the compound `CC(C)c1c(Br)c2ccc(C(F)(F)F)nc2n1-c1cnc2c(c1)CC(=O)N2` [Example 394, 5-[3-Bromo-2-isopropyl-6-(trifluoromethyl)pyrrolo[2,3-b]pyridin-1-yl]-1,3-dihydropyrrolo[2,3-b]pyridin-2-one], the IC50 was 31.6 nM.
